# Measurements: ChEMBL document CHEMBL3739362, “Brominated Variant of the Lantibiotic NAI-107 with Enhanced Antibacterial Potency” (2015)
# Key:
# Format in all cases: functional
# Staphylococcus aureus [1] = assay: Antibacterial activity against glycopeptide-intermediate Staphylococcus aureus L3797 by broth microdilution assay
# Staphylococcus aureus [2] = assay: Antibacterial activity against glycopeptide-intermediate Staphylococcus aureus L3798 by broth microdilution assay
# Streptococcus pneumoniae [3] = assay: Antibacterial activity against Streptococcus pneumoniae ATCC 49619 by broth microdilution assay
# Streptococcus pneumoniae [4] = assay: Antibacterial activity against Streptococcus pneumoniae L44 by broth microdilution assay
# Streptococcus pyogenes = assay: Antibacterial activity against Streptococcus pyogenes L49 by broth microdilution assay
# Enterococcus faecalis [5] = assay: Antibacterial activity against Enterococcus faecalis L559 by broth microdilution assay
# Enterococcus faecalis [6] = assay: Antibacterial activity against vancomycin-resistant Enterococcus faecalis L560 by broth microdilution assay
# Enterococcus faecium = assay: Antibacterial activity against vancomycin-resistant Enterococcus faecium L569 by broth microdilution assay
compound,measurement,setting,value
CN[C@@H](CC(C)C)C(=O)N[C@H]1C(=O)N[C@@H](CC(N)=O)C(=O)N[C@H]2C(=O)N[C@H]3C(=O)N[C@H](C(=O)N[C@@H](C(=O)O)c4cc(O)cc(O)c4-c4cc3ccc4O)[C@H](O)c3ccc(c(Cl)c3)Oc3cc2cc(c3O[C@H]2O[C@@H](CO)[C@H](O)[C@@H](O)[C@@H]2O[C@@H]2C[C@@](C)(N)[C@@H](O)[C@@H](C)O2)Oc2ccc(cc2Cl)[C@H]1O,MIC,Staphylococcus aureus [1],8 µg/mL
same,MIC,Staphylococcus aureus [2],16 µg/mL
same,MIC,Streptococcus pneumoniae [3],0.25 µg/mL
same,MIC,Streptococcus pneumoniae [4],0.5 µg/mL
same,MIC,Streptococcus pyogenes,0.5 µg/mL
same,MIC,Enterococcus faecalis [5],1 µg/mL
same,MIC,Enterococcus faecalis [6],> 64 µg/mL
same,MIC,Enterococcus faecium,> 64 µg/mL
